Experimental data from PMC2887688 (Journal of biomolecular screening, 2010).
Entries after “also recorded” stand apart in the source; their conditions may differ.

Experiments:
hsFATP4 = hsFATP4 (Homo sapiens, UniProt Q6P1M0); assay: BODIPY-FA; type: cell-based; conditions: hsFATP4 cells
hsFATP5 = molecular target: T1, hsFATP5 (Homo sapiens, UniProt Q9Y2P5); assay: BODIPY-FA; type: cell-based; conditions: hsFATP5 cells, data not shown
T1 sequence (Q9Y2P5 1-690): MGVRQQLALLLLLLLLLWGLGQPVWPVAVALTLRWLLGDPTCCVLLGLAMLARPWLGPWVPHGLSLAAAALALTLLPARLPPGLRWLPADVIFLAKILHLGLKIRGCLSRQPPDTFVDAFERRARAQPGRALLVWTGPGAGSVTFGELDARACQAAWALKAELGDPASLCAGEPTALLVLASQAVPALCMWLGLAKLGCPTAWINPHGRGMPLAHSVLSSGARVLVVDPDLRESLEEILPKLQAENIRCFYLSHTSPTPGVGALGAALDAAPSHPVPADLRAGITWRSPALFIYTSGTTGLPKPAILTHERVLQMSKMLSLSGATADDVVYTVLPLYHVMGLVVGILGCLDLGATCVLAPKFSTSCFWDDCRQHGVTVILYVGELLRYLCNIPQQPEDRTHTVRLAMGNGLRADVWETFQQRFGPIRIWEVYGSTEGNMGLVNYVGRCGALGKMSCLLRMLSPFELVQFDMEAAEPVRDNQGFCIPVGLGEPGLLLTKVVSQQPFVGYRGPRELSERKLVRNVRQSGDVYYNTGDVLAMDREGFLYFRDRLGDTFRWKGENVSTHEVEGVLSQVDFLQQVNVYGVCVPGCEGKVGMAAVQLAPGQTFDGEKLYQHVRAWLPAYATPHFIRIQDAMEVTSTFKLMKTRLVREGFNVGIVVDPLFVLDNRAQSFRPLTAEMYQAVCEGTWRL

3T3-L1 adipocytes = assay: LCFA; type: cell-based, murine; conditions: insulin 0.2 – 1.7 uM
[1] = tested on: undifferentiated 3T3-L1 preadipocytes; assay: BODIPY-FA uptake in undifferentiated 3T3-L1 preadipocytes/fibroblasts, FLIPR; type: cell-based, murine

hsFATP4, sequence (Q6P1M0 whole entry): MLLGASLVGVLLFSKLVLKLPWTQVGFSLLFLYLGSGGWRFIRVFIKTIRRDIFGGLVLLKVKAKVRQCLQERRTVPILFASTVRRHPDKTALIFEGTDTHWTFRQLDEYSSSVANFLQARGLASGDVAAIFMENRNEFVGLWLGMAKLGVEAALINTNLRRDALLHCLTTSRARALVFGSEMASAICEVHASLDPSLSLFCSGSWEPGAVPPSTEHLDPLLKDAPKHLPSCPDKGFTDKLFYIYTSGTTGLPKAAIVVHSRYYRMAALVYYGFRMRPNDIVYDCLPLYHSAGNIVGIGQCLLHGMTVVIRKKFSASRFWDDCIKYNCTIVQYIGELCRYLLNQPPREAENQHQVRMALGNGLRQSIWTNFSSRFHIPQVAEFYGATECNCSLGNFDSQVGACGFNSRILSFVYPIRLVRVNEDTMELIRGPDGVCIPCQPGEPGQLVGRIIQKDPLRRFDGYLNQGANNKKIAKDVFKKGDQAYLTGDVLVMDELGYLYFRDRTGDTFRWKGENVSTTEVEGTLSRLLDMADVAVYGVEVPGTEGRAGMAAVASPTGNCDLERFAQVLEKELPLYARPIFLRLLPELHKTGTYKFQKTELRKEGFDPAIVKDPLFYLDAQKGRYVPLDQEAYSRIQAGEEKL

With CCCCCCCCCCCCCCCC(=O)O [palmitic acid] the “inhibition of fatty acid uptake by FATP4 (in words)” value (hsFATP4; FLIPR concentration-response) was “did not inhibit” and the “inhibition of fatty acid uptake by FATP5 (in words)” value (hsFATP5) was “did not inhibit”.
With C[C@H](CCC(=O)O)[C@H]1CC[C@H]2[C@@H]3[C@@H](O)C[C@@H]4C[C@H](O)CC[C@]4(C)[C@H]3CC[C@]12C [ursodiol, ursodeoxycholic acid] the “increase of fatty acid uptake signal by hsFATP4 at high concentration (in words)” value (hsFATP4; FLIPR) was “apparent signal increase at 100 uM”.
For “insulin: adipogenic hormone insulin, enhances LCFA uptake in adipocytes”, the “maximal insulin-induced uptake over the baseline of adipocytes” value (3T3-L1 adipocytes) was “about two- to three-fold” and the “effect on uptake in undifferentiated 3T3-L1 preadipocytes/fibroblasts” value [1] was “much weaker effects; also recorded: minimal effect”.
